Results as given in PubChem BioAssay (NCI).
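Cultured in 96-well plates, cells were exposed to test compound for 48 hours across five concentrations. TGI denotes the concentration required for complete inhibition of growth.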

Legend:
Assay in all cases: NCI-60 cell line screen, 48 h
CCRF-CEM leukemia = test system: CCRF-CEM leukemia
A549 NSCLC = test system: A549 NSCLC
NCI-H226 lung = test system: NCI-H226 lung
HL-60(TB) leukemia = test system: HL-60(TB) leukemia
SR leukemia = test system: SR leukemia
LOX IMVI melanoma = test system: LOX IMVI melanoma
OVCAR-8 ovarian = test system: OVCAR-8 ovarian
SK-MEL-28 melanoma = test system: SK-MEL-28 melanoma
SNB-75 CNS = test system: SNB-75 CNS
MCF7 breast = test system: MCF7 breast

## C/C(=N/NC(=S)N1CCCC1)c1cccc(/C(C)=N\NC(=S)N2CCCC2)n1
CCRF-CEM leukemia
  TGI: 3.01 µM
A549 NSCLC
  TGI: 9.01 µM
NCI-H226 lung
  TGI: 3.76 µM
HL-60(TB) leukemia
  TGI: 4.88 µM
SR leukemia
  TGI: 7.58 µM
LOX IMVI melanoma
  TGI: > 100 µM
OVCAR-8 ovarian
  TGI: 2.35 µM
SK-MEL-28 melanoma
  TGI: 5.09 µM

## CCOC(=O)C1C(c2ccc([N+](=O)[O-])cc2)NC(c2ccc([N+](=O)[O-])cc2)C(C(=O)OC)S1(=O)=O (configuration not stated)
CCRF-CEM leukemia
  TGI: > 100 µM
A549 NSCLC
  TGI: > 100 µM
SNB-75 CNS
  TGI: > 100 µM
NCI-H226 lung
  TGI: > 100 µM
HL-60(TB) leukemia
  TGI: > 100 µM
SR leukemia
  TGI: > 100 µM
LOX IMVI melanoma
  TGI: > 100 µM
OVCAR-8 ovarian
  TGI: > 100 µM
SK-MEL-28 melanoma
  TGI: > 100 µM

## COc1cc(CCCC(O)COc2cccc3c2C2(O)CCCCCC32)cc(OC)c1 (configuration not stated)
CCRF-CEM leukemia
  TGI: > 100 µM
A549 NSCLC
  TGI: 30.8 µM
SNB-75 CNS
  TGI: 30.2 µM
NCI-H226 lung
  TGI: 33.9 µM
HL-60(TB) leukemia
  TGI: 45.9 µM
OVCAR-8 ovarian
  TGI: 37.8 µM
SK-MEL-28 melanoma
  TGI: 31.1 µM

## CCO/C(O)=C(/C(=N)N1CCCC1)C(=O)Nc1ccc(Cl)cc1
CCRF-CEM leukemia
  TGI: > 100 µM
A549 NSCLC
  TGI: > 100 µM
SNB-75 CNS
  TGI: > 100 µM
NCI-H226 lung
  TGI: > 100 µM
MCF7 breast
  TGI: > 100 µM
HL-60(TB) leukemia
  TGI: > 100 µM
LOX IMVI melanoma
  TGI: > 100 µM
OVCAR-8 ovarian
  TGI: > 100 µM
SK-MEL-28 melanoma
  TGI: > 100 µM

## COc1ccc(C(CC(=O)c2ccccc2)C(=O)c2ccc3c(c2)OCO3)cc1 (configuration not stated)
CCRF-CEM leukemia
  TGI: > 100 µM
A549 NSCLC
  TGI: > 100 µM
SNB-75 CNS
  TGI: > 100 µM
NCI-H226 lung
  TGI: > 100 µM
MCF7 breast
  TGI: > 100 µM
HL-60(TB) leukemia
  TGI: > 100 µM
SR leukemia
  TGI: > 100 µM
OVCAR-8 ovarian
  TGI: > 100 µM
SK-MEL-28 melanoma
  TGI: > 100 µM

## COc1ccc(-n2cnc3c(NC(C)(C)C(=O)O)ncnc32)cc1
CCRF-CEM leukemia
  TGI: > 100 µM
A549 NSCLC
  TGI: > 100 µM
SNB-75 CNS
  TGI: > 100 µM
NCI-H226 lung
  TGI: > 100 µM
MCF7 breast
  TGI: > 100 µM
SR leukemia
  TGI: > 100 µM
LOX IMVI melanoma
  TGI: > 100 µM
OVCAR-8 ovarian
  TGI: > 100 µM
SK-MEL-28 melanoma
  TGI: > 100 µM

## CC(C)(C)C(=O)Nc1cccc(-c2ccc[nH]2)n1
CCRF-CEM leukemia
  TGI: > 100 µM
A549 NSCLC
  TGI: > 100 µM
SNB-75 CNS
  TGI: > 100 µM
NCI-H226 lung
  TGI: > 100 µM
MCF7 breast
  TGI: > 100 µM
SR leukemia
  TGI: > 100 µM
LOX IMVI melanoma
  TGI: > 100 µM
OVCAR-8 ovarian
  TGI: > 100 µM
SK-MEL-28 melanoma
  TGI: > 100 µM

## CC(C)C(Cl)CC/C(CBr)=C(\Cl)CCl (configuration not stated)
A549 NSCLC
  TGI: 36.1 µM
SNB-75 CNS
  TGI: 17 µM
NCI-H226 lung
  TGI: 22.2 µM
MCF7 breast
  TGI: 1.29 µM
HL-60(TB) leukemia
  TGI: 2.24 µM
LOX IMVI melanoma
  TGI: 1.2 µM
OVCAR-8 ovarian
  TGI: 4.65 µM
SK-MEL-28 melanoma
  TGI: 12 µM

## CC(Oc1ccc(Cl)cc1Cl)C(=O)NN1C(=O)CSC1c1ccc(Cl)cc1 (configuration not stated)
A549 NSCLC
  TGI: > 100 µM
SNB-75 CNS
  TGI: 72.7 µM
NCI-H226 lung
  TGI: 39.2 µM
MCF7 breast
  TGI: > 100 µM
HL-60(TB) leukemia
  TGI: 84.7 µM
SR leukemia
  TGI: 41.3 µM
LOX IMVI melanoma
  TGI: > 100 µM
OVCAR-8 ovarian
  TGI: > 100 µM
SK-MEL-28 melanoma
  TGI: > 100 µM

## COC(=O)c1c(C(=O)OC)c(C(c2ccccc2)c2ccccc2)n(-c2ccccc2)c1Cl
CCRF-CEM leukemia
  TGI: > 10 µM
A549 NSCLC
  TGI: > 10 µM
NCI-H226 lung
  TGI: > 10 µM
MCF7 breast
  TGI: > 10 µM
HL-60(TB) leukemia
  TGI: > 10 µM
SR leukemia
  TGI: > 10 µM
OVCAR-8 ovarian
  TGI: > 10 µM
SK-MEL-28 melanoma
  TGI: > 10 µM

## COc1ccc(N2C(=O)/C(=C\c3cc(OC)c(OC)c(OC)c3)S(=O)(=O)C2c2ccccc2)cc1 (configuration not stated)
CCRF-CEM leukemia
  TGI: > 100 µM
A549 NSCLC
  TGI: > 100 µM
NCI-H226 lung
  TGI: > 100 µM
MCF7 breast
  TGI: > 100 µM
SR leukemia
  TGI: > 100 µM
LOX IMVI melanoma
  TGI: > 100 µM
OVCAR-8 ovarian
  TGI: > 100 µM
SK-MEL-28 melanoma
  TGI: > 100 µM

## Cc1ccc(S(=O)(=O)n2cnc(CC(NC(=O)C3CCC(=O)N3C(=O)OCc3ccccc3)C(=O)N3CCCC3C(=O)NN)c2)cc1 (configuration not stated)
A549 NSCLC
  TGI: > 100 µM
SNB-75 CNS
  TGI: > 100 µM
NCI-H226 lung
  TGI: > 100 µM
MCF7 breast
  TGI: > 100 µM
HL-60(TB) leukemia
  TGI: > 100 µM
SR leukemia
  TGI: > 100 µM
OVCAR-8 ovarian
  TGI: > 100 µM
SK-MEL-28 melanoma
  TGI: > 100 µM

## CN(CCO)c1nc2c(c(=O)[nH]1)CNCC2
CCRF-CEM leukemia
  TGI: > 100 µM
A549 NSCLC
  TGI: > 100 µM
SNB-75 CNS
  TGI: > 100 µM
NCI-H226 lung
  TGI: > 100 µM
HL-60(TB) leukemia
  TGI: > 100 µM
SR leukemia
  TGI: > 100 µM
LOX IMVI melanoma
  TGI: > 100 µM
OVCAR-8 ovarian
  TGI: > 100 µM
SK-MEL-28 melanoma
  TGI: > 100 µM

## C=C(Cl)C(Br)(CBr)CCC(Br)C(C)(C)Br (configuration not stated)
CCRF-CEM leukemia
  TGI: > 10 µM
A549 NSCLC
  TGI: > 10 µM
SNB-75 CNS
  TGI: > 10 µM
NCI-H226 lung
  TGI: > 10 µM
MCF7 breast
  TGI: 5.32 µM
HL-60(TB) leukemia
  TGI: > 1 µM
SR leukemia
  TGI: > 1 µM
OVCAR-8 ovarian
  TGI: > 1 µM
SK-MEL-28 melanoma
  TGI: > 10 µM

## COC(=O)/C=C(\S/C(=C(/c1ccc(OC)cc1)n1cc(C(=O)OC)c(C(=O)OC)n1)c1ccc(OC)cc1)C(=O)OC
CCRF-CEM leukemia
  TGI: 15.4 µM
A549 NSCLC
  TGI: > 100 µM
SNB-75 CNS
  TGI: > 100 µM
NCI-H226 lung
  TGI: > 100 µM
MCF7 breast
  TGI: > 100 µM
HL-60(TB) leukemia
  TGI: 7.64 µM
LOX IMVI melanoma
  TGI: 25.4 µM
OVCAR-8 ovarian
  TGI: 4.8 µM
SK-MEL-28 melanoma
  TGI: > 100 µM

## COC(=O)c1cc(C#N)[nH]c1-c1cccs1
CCRF-CEM leukemia
  TGI: > 100 µM
A549 NSCLC
  TGI: > 100 µM
SNB-75 CNS
  TGI: > 100 µM
NCI-H226 lung
  TGI: > 100 µM
SR leukemia
  TGI: > 100 µM
OVCAR-8 ovarian
  TGI: > 100 µM
SK-MEL-28 melanoma
  TGI: > 100 µM

## CCOC(=O)Oc1cc2c(ccn2C)c2c1c1ccccc1n2C(=O)OCC
CCRF-CEM leukemia
  TGI: > 100 µM
A549 NSCLC
  TGI: > 100 µM
SNB-75 CNS
  TGI: > 100 µM
NCI-H226 lung
  TGI: > 100 µM
MCF7 breast
  TGI: > 100 µM
SR leukemia
  TGI: > 100 µM
LOX IMVI melanoma
  TGI: > 100 µM
OVCAR-8 ovarian
  TGI: > 100 µM
SK-MEL-28 melanoma
  TGI: > 100 µM

## N#CC1=C(N)Nc2nc3ccccc3n2C1c1ccccc1 (configuration not stated)
CCRF-CEM leukemia
  TGI: > 100 µM
A549 NSCLC
  TGI: > 100 µM
MCF7 breast
  TGI: > 100 µM
HL-60(TB) leukemia
  TGI: > 100 µM
SR leukemia
  TGI: > 100 µM
LOX IMVI melanoma
  TGI: > 100 µM
OVCAR-8 ovarian
  TGI: > 100 µM

## N#CC1=C(N2CCOCC2)CCC1
CCRF-CEM leukemia
  TGI: > 100 µM
A549 NSCLC
  TGI: > 100 µM
SNB-75 CNS
  TGI: > 100 µM
NCI-H226 lung
  TGI: > 100 µM
MCF7 breast
  TGI: > 100 µM
HL-60(TB) leukemia
  TGI: > 100 µM
SR leukemia
  TGI: > 100 µM
LOX IMVI melanoma
  TGI: > 100 µM
OVCAR-8 ovarian
  TGI: > 100 µM

## C=CC(c1ccccc1)C1(O)c2cccc(O)c2C(=O)c2c(O)cccc21 (configuration not stated)
A549 NSCLC
  TGI: 32.9 µM
SNB-75 CNS
  TGI: 41.8 µM
NCI-H226 lung
  TGI: 39.8 µM
MCF7 breast
  TGI: 37.8 µM
SR leukemia
  TGI: 24.2 µM
LOX IMVI melanoma
  TGI: 29.9 µM
OVCAR-8 ovarian
  TGI: 43 µM
SK-MEL-28 melanoma
  TGI: 41.4 µM

## O=C1OC2(c3ccc(O)cc3Oc3cc(O)ccc32)c2c1c(-c1ccccc1)c(-c1ccccc1)c(-c1ccccc1)c2-c1ccccc1
A549 NSCLC
  TGI: > 100 µM
SNB-75 CNS
  TGI: 41 µM
NCI-H226 lung
  TGI: 87.3 µM
MCF7 breast
  TGI: 31.1 µM
HL-60(TB) leukemia
  TGI: 39.4 µM
SR leukemia
  TGI: 46.1 µM
LOX IMVI melanoma
  TGI: 32.4 µM
OVCAR-8 ovarian
  TGI: 45.2 µM
SK-MEL-28 melanoma
  TGI: 44.6 µM

## O=C1/C(=C/c2ccccc2)CCCC/C1=C\c1ccccc1
A549 NSCLC
  TGI: > 100 µM
SNB-75 CNS
  TGI: > 100 µM
NCI-H226 lung
  TGI: > 100 µM
SR leukemia
  TGI: > 100 µM
LOX IMVI melanoma
  TGI: > 100 µM
OVCAR-8 ovarian
  TGI: > 100 µM
SK-MEL-28 melanoma
  TGI: > 100 µM

## CO[C@H](c1ccccc1)[C@H](O)[C@](O)(c1ccccc1)P(=O)(OC)OC
CCRF-CEM leukemia
  TGI: > 100 µM
A549 NSCLC
  TGI: > 100 µM
SNB-75 CNS
  TGI: > 100 µM
NCI-H226 lung
  TGI: > 100 µM
HL-60(TB) leukemia
  TGI: > 100 µM
SR leukemia
  TGI: > 100 µM
LOX IMVI melanoma
  TGI: > 100 µM
OVCAR-8 ovarian
  TGI: > 100 µM
SK-MEL-28 melanoma
  TGI: > 100 µM

## Cc1nc2ccc(N=NN(C)C)cc2[nH]1
CCRF-CEM leukemia
  TGI: > 100 µM
A549 NSCLC
  TGI: > 100 µM
SNB-75 CNS
  TGI: > 100 µM
NCI-H226 lung
  TGI: > 100 µM
MCF7 breast
  TGI: > 100 µM
SR leukemia
  TGI: > 100 µM
LOX IMVI melanoma
  TGI: > 100 µM
OVCAR-8 ovarian
  TGI: > 100 µM
SK-MEL-28 melanoma
  TGI: > 100 µM
